Results on two molecules are retold here after patent publication US20100015576A1, “METHOD AND APPARATUS FOR DIAGNOSTIC AND TREATMENT USING HARD TISSUE OR MATERIAL MICROPERFORATION” (RejuveDent LLC, priority 2007, published 2010).

For data set [1] the following is noted: value used as input for the model calculation, cited from earlier work; for diffusion coefficient, peritubular: peritubular dentine; for diffusion coefficient, tubular: tubular dentine.
For data set [2] the following is noted: in 14 hours; 33% hydrogen peroxide on micro-perforations.
Description: One freshly extracted lower human incisor was used in the experiment. Immediately after extraction, the tooth was stored in a 0.1% w/w thymol solution at a temperature of +4-6° C. for 3 weeks.
Data set [3] can be described thus: In vivo whitening of teeth through laser microperforations.

In the case of `OO` [hydrogen peroxide], the “diffusion coefficient in intertubular dentine” value in data set [1] is 3.6×10^−7 cm^2/sec. The “diffusion coefficient, peritubular” value in data set [1] was 3.6×10^−8 cm^2/sec. In addition, the “diffusion coefficient, tubular” value in data set [1] is 3.6×10^−6 cm^2/sec. For the same molecule, in data set [2], the “brown discoloration of the root surface” value is on record as “completely bleached”. In addition, the “whitening effect (VITA scale)” value was “one shade” in data set [3] (Patient 1, 5 days after the procedure, peroxide 105 min at 37° C., 4 laser holes); “one more shade” in data set [3] (Patient 1, 7 days after the procedure, peroxide 105 min at 37° C., 4 laser holes); “two shades (A3 to A1)” in data set [3] (Patients 2 and 3, 1 day after the procedure, peroxide 70 min / 45 min at 37° C.). For the same molecule, the “adverse effects on the oral mucosa” value in data set [3] (three patients) is “didn't observe any adverse effects”. Besides, the “pulp vitality (follow-up histopathology)” value in data set [3] (treated teeth, after extraction) is given as “confirmed the vitality of the pulp”.
Regarding `O` [water], in data set [1], the “diffusion coefficient in intertubular dentine” value is on record as 1.74×10^−6 cm^2/sec; the “diffusion coefficient, peritubular” value is reported as 1.74×10^−7 cm^2/sec; the “diffusion coefficient, tubular” value is listed as 1.74×10^−5 cm^2/sec.
